Measured values from patent publication US9809560B2, “Ligands and methods for labeling biomolecules in vivo” (Albert Einstein College of Medicine, Inc., priority 2010, dated 2017).
Structures can show the parent of a compound that is named as a salt.

How the values were obtained:
PD1-Fc = experiment: Labeling of PD1-Fc via CuAAC and Cu-free click chemistry, detection by Western blot; settings: 1 h; for Western blot labeling signal: CuAAC with biotin-alkyne 100 μM or BARAC-biotin 100 μM
Procedure: FIG. 13. Comparison of the efficiency of the CuAAC and BARAC-mediated copper-free click chemistry in labeling recombinant proteins and crude cell lysates. Western blot analysis of PD1-Fc isolated from HEK cells treated with Ac4ManNAz (top panel). Total protein loading was confirmed by Coomassie staining (bottom panel). Reaction conditions for CuAAC: biotin-alkyne (100 μM) in the presence of sodium ascorbate (2.5 mM), CuSO4 (250 μM) premixed with various tristriazolylamino ligands (500 μM); copper-free click reaction: BARAC-biotin (100 μM). Reactions were allowed to proceed for 1 h at room temperature, and analyzed by Western blot using an HRP-conjugated anti-biotin antibody. Structural formulae of tris(triazolylmethyl)amine-based ligands and BARAC-biotin. BTTAA=2-[4-({bis[(1-tert-butyl-1H-1,2,3-triazol-4-yl)methyl]amino}methyl)-1H-1,2,3-triazol-1-yl]acetic acid, BTTES=2-[4-({bis[(1-tert-butyl-1H-1,2,3-triazol-4-yl)methyl]amino}methyl)-1H-1,2,3-triazol-1-yl]ethyl hydrogen sulfate, TBTA=tris[(1-benzyl-1H-1,2,3-triazol-4-yl)methyl]amine, THPTA=tris[(1-hydroxypropyl-1H-1,2,3-triazol-4-yl)methyl]amine, BARAC=biarylazacyclooctynone.
To evaluate the activity of the new ligand-Cu(I) complex and compare the click reactions in the context of biomolecular labeling experiments, the first system used was a recombinant glycoprotein—Programmed Death 1-Immunoglobulin G Fc fusion (PD1-Fc). When expressed in mammalian cells, the Fc region of the recombinant protein is glycosylated and terminated with sialic acids. HEK-293 cells stably expressing PD1-Fc fusion protein were cultured in medium containing 50 μM sialic acid metabolic precursor—peracetylated N-azidoacetylmannosamine (Ac4ManNAz) for 4 days. The target protein was then isolated using protein G (a genetically engineered protein that contains Fc binding domains of protein G) agarose. To probe for the presence of the sialic acid-associated azide, the protein was reacted with biotin-alkyne via the CuAAC or BARAC-biotin via the copper-free click chemistry. For the CuAAC, 100 μM of biotin-alkyne was used as the coupling partner and the ratio of biotin-alkyne, ligand, CuSO4 and sodium ascorbate was held at 1:5:2.5:25, a labeling condition optimized in the lab. The copper-free click chemistry was performed with 100 μM of BARAC-biotin. The reactions were allowed to proceed for one hour and the labeled protein was analyzed by SDS-PAGE and Western blot. As quantified by ImageJ, reactions mediated by BTTES-Cu(I) and BTTAA-Cu(I) provided 2.6- and 2.1-fold stronger signal than the signal afforded by THPTA-Cu(I) for the fusion protein isolated from Ac4ManNAz-treated culture. […]

Jurkat cells = experiment: Live cell labeling of Ac4ManNAl-treated cells, BTTPS-Cu(I) vs BTTP-Cu(I), Alexa Fluor 488-streptavidin and 7-AAD flow cytometry; assay type: cell-based, human; settings: for mean fluorescence intensity: 15 min
Procedure: FIG. 12A-12D. Comparison of the efficiency of the BTTPS-Cu(I) and BTTP-Cu(I)-mediated azide-alkyne cycloaddition in labeling sialylated glycoconjugates in live cells. Jurkat cells were cultured in the presence or absence of Ac4ManNAl for 3 days. Cells were then reacted with biotin azide (50 μM) in the presence of sodium ascorbate (2.5 mM), and CuSO4 premixed with ligands BTTPS or BTTP ([ligand]:[CuSO4]=6:1). Reactions were quenched with BCS, stained with Alexa Fluor 488-streptavidin, 7-AAD, and analyzed by flow cytometry. (A) Mean fluorescence intensity (MFI) of cells treated with the BTTPS-Cu(I) or BTTP-Cu(I) catalyst ([CuSO4]=75 μM) in the course of 5-15 min reactions. (B) Percentage of viable cells without cell-membrane damage post the click reactions with the BTTPS-Cu(I) or BTTP-Cu(I) catalyst ([CuSO4]=75 μM) in the course of 5-15 min reactions. (C) MFI of cells treated with the BTTPS-Cu(I) catalyst ([CuSO4]=20-75 μM) in a one-minute reaction. (D) Percentage of viable cells without cell-membrane damage post the click reactions with the BTTPS-Cu(I) catalyst ([Cu]=20-75 μM) in a one-minute reaction.
In the ligand design, sulfation of BTTP is used to generate a negatively charged ligand, BTTPS (3-(4-((bis((1-tert-butyl-1H-1,2,3-triazol-4-yl)methyl)amino)methyl)-1H-1,2,3-triazol-1-yl)propyl hydrogen sulfate), (FIG. 14) to minimize the cellular internalization of the coordinated copper. To evaluate if sulfation confers the ligand the desired property, BTTPS-Cu(I) and BTTP-Cu(I) were compared in live cell labeling experiments. Jurkat cells were metabolically labeled with Ac4ManNAl. The treated cells were reacted with biotin-azide (50 μM) in the presence of BTTPS-Cu(I) or BTTP-Cu(I) for 5-15 min at room temperature (catalyst formulation: [ligand]:[CuSO4]=6:1, [CuSO4]=75 μM). After the reaction was quenched with BCS, the biotinylated cells were incubated with Alexa Fluor 488-streptavidin. The cells were then stained with 7-aminoactinomycin D (7-AAD), a fluorescent molecule with strong affinity for double-stranded DNA, and analyzed by flow cytometry. […] Therefore, healthy and damaged cells can be easily distinguished. […] Greater than 60% cells were still undamaged after treatment with BTTPS-Cu(I) (7-AAD negative), whereas only 26% cells treated with BTTP-Cu(I) reminded normal (FIG. 12b). Furthermore, the labeling temperature also plays a significant role in modulating the Cu-associated toxicity. When both Jurkat cells and the labeling reagents were pre-cooled to 4° C. before triggering the CuAAC, greater than 85% cells remained viable after a 15 min BTTPS-Cu(I)-mediated reaction with high labeling efficiency achieved (mean fluorescence intensity 2200, for reactions performed at 4° C.-room temperature vs 3679, for reactions performed at room temperature).

[1] = Fluorogenic kinetic assay of CuAAC of 3-azido-7-hydroxy-coumarin and propargyl alcohol; settings: TBTA-Cu(I)-catalyzed reaction, same fluorogenic assay
Procedure: FIG. 1A-1C. Copper(I)-catalyzed azide-alkyne cycloaddition (CuAAC) is accelerated by Cu(I)-stabilizing ligands. (A) CuAAC of azides and terminal alkynes to form 1,4-disubstituted 1,2,3-triazoles. (B) Structures of CuAAC-accelerating ligands. (C) Conversion-time profiles of CuAAC in the presence/absence of accelerating ligands. Reaction conditions: propargyl alcohol (50 μM), 3-azido-7-hydroxy-coumarin (100 μM), CuSO4 (75 μM), 0.1 M potassium phosphate buffer (pH 7.0)/DMSO 95:5, sodium ascorbate ([…]), rt. Error bars represent the standard deviation of three replicate experiments.
Protocol for Kinetic Measurement of CuAAC of 3-azido-7-hydroxy-coumarin and Propargyl Alcohol […]
Procedure for 200 μL reactions: In a 96-well fluorescence plate, add the reagents in the following order: (1) 40 μL of 500 mM phosphate buffer pH 7.0; (2) 1.0 μL 10 mM propargyl alcohol; (3) 10 μL of DMSO; (4) 6 μL of premixed CuSO4 and ligand ([Cu]=2.5 mM); (5) 1.0 μL 20 mM coumarin-N3; (6) 20 μL of 25 mM sodium ascorbate; (7) Read fluorescence (λex=404 nm, λem=477 nm, RFU) on the Synergy plate reader.

[2] = cited from earlier work
zebrafish embryos = settings: 1 mM CuSO4, 1.5 mM sodium ascorbate, 0.1 mM TBTA ligand; cited from earlier work

In the case of `CC(C)(C)n1cc(CN(Cc2cn(CC(=O)O)nn2)Cc2cn(C(C)(C)C)nn2)nn1` [BTTAA, 2-(4-((bis((1-tert-butyl-1H-1,2,3-triazol-4-yl)methyl)amino)methyl)-1H-1,2,3-triazol-1-yl)acetic acid], the “signal relative to THPTA-Cu(I) (Western blot, ImageJ)” value (PD1-Fc; biotin-alkyne 100 μM, ligand 500 μM, CuSO4 250 μM, sodium ascorbate 2.5 mM) is reported as 2.1 fold.

With `CC(C)(C)n1cc(CN(Cc2cn(CCCOS(=O)(=O)O)nn2)Cc2cn(C(C)(C)C)nn2)nn1` [BTTPS, 3-(4-((bis((1-tert-butyl-1H-1,2,3-triazol-4-yl)methyl)amino)methyl)-1H-1,2,3-triazol-1-yl)propyl hydrogen sulfate] the mean fluorescence intensity (Jurkat cells; reactions performed at 4° C.-room temperature) was 2200, the mean fluorescence intensity (Jurkat cells; reactions performed at room temperature) was 3679 and the “cells undamaged (7-AAD negative)” value (Jurkat cells; 15 min reaction at room temperature, [ligand]:[CuSO4]=6:1, [CuSO4]=75 μM) was “Greater than 60%”. For the same molecule, the cells remaining viable (Jurkat cells; cells and reagents pre-cooled to 4° C., 15 min reaction) was “greater than 85%”.

For `c1ccc(Cn2cc(CN(Cc3cn(Cc4ccccc4)nn3)Cc3cn(Cc4ccccc4)nn3)nn2)cc1` [TBTA, tris[(1-benzyl-1H-1,2,3-triazol-4-yl)methyl]amine], the “cycloaddition product yield at leveling off” value [1] is given as less than 20%, the “Western blot labeling signal” value (PD1-Fc) is given as “no detectable signal” and the water solubility [2] is given as “very poor water solubility”. The “time by which all embryos were dead” value (zebrafish embryos) was no more than 15 min.

In the case of biarylazacyclooctynone [BARAC], the “Western blot labeling signal” value (PD1-Fc) is reported as “no detectable signal”.

With “tris[(1-hydroxypropyl-1H-1,2,3-triazol-4-yl)methyl]amine [THPTA]” the “Western blot labeling signal” value (PD1-Fc) was “significantly weaker labeling”.
